Experimental data as given in patent US20070148154A1, “Use of superoxide dismutase mimetics and reductase gultatione in the form of anticancer drugs” (UNIVERSITE RENE DESCARTES (PARIS V), priority 2004, published 2007).

Legend:
CT26 tumor cells = assay: In vitro viability test (MTT); type: cell-based, mouse; details: for viability reduced by: 400 μM, 48 h
Description: (§4) In vitro viability tests, in response to the treatment with NAC, CuDIPS, MnTBAP or MnDPDP, were carried out on the cell lines of Example 1 and on normal human leukocytes. The latter were obtained from normal volunteers, after informed consent, by taking venous blood samples collected on an anticoagulant (lithium-heparinate). The red blood cells were lysed by osmotic shock using a hypotonic solution of potassium acetate and the leukocytes were cultured under the conditions described in Example 1.
(§5) For the viability test, the cells (2×10^4 cells/well) were seeded into 96-well plates (COSTAR, Corning Inc. NY, USA) and incubated for 48 hours in complete medium supplemented with increasing concentrations, from 0 to 400 μm, of NAC, of MnTBAP, of CuDIPS or of MnDPDP. The cell viability was evaluated by reduction of a methylthiazoletetrazolium salt (MTT; SIGMA) into formazan. The cells were exposed to 20 μl of MTT (5 mg/ml in PBS) and incubated for 4 h at 37° C. 150 μl of medium were then removed from each well and the reaction was visualized by the addition of 100 μl of DMSO (SIGMA). The absorbance was analyzed for each well at 550 nm and at 630 nm with an ELISA plate reader. The number of viable cells was determined by the difference between the absorbance at 550 nm and the absorbance at 630 nm.
(§6) The viability tests were carried out on the CT26, Hepa 16 and A549 tumor lines, and on normal human leukocytes, according to the protocol described in Example 2.

[1] = system: CT26 (mouse colon carcinoma); assay: In vitro cell proliferation assay ([3H]-thymidine); type: cell-based; details: for decrease in tumor cell proliferation, antitumor agent alone: no antioxidant
Description: (§7) In vitro cell proliferation assays were carried out on the following cell lines: CT26 (mouse colon carcinoma, ATCC (American Type Culture Collection) No. 2638), Hepa 1-6 (mouse liver hepatoma, ATCC No. 1830), A549 (human lung carcinoma, ATCC No. 185).
(§8) The cell proliferation is determined by incubating the cells for 16 hours with [^3H]-thymidine (1 μCi/well).

[2] = system: Hepa 1-6 (mouse liver hepatoma); assay: In vitro cell proliferation assay ([3H]-thymidine); type: cell-based; details: for decrease in tumor cell proliferation, antitumor agent alone: no antioxidant
Description: as §7, §8

Hepa 1-6 tumor cells = assay: In vitro viability test (MTT); type: cell-based, mouse; details: for viability reduced by: 400 μM, 48 h
Description: as §4, §5, §6

[3] = system: A549 (human lung carcinoma); assay: In vitro cell proliferation assay ([3H]-thymidine); type: cell-based; details: for decrease in tumor cell proliferation, antitumor agent alone: no antioxidant
Description: as §7, §8

normal human leukocytes = assay: In vitro viability test (MTT); details: for decrease in viability of normal leukocytes, antitumor agent alone: no antioxidant; for decrease in cell viability, maximum / effect on viability of normal human leukocytes: 0 to 400 μM, 48 h; for effect on the cytotoxic effect of taxol on normal leukocytes: with 20 μM taxol; for effect on the cytotoxic effect of taxol on normal leukocytes / effect on the cytotoxic effect of oxaliplatin on normal leukocytes / effect on the cytotoxic effect of 5-FU on normal leukocytes: increasing concentrations of antioxidant; for effect on the cytotoxic effect of oxaliplatin on normal leukocytes: with 1 mM oxaliplatin; for effect on the cytotoxic effect of 5-FU on normal leukocytes: with 40 mM 5-FU
Description: as §4, §5, §6

A549 tumor cells = assay: In vitro viability test (MTT); type: cell-based, human; details: for viability reduced by: 400 μM, 48 h
Description: as §4, §5, §6

[4] = system: Hepa 1-6 cells in C57BL/6 mice; assay: In vivo antitumor activity, subcutaneous Hepa 1-6 tumors; design: species or system mouse; details: for decrease in tumor volume at one month compared with the nontreated animals: no oxaliplatin; for effect on the inhibitory (antitumor) effect of oxaliplatin on tumor growth: mice treated with oxaliplatin 20 mg/kg, NAC 150 mg/kg, SOD mimetics 10 mg/kg i.p.
Description: (§1) The in vivo antitumor activity of various antioxidant treatments was estimated. For these experiments, female six- to eight-week-old BALB/c (for the injection of CT-26 tumor cells) or C57/BL6 (for the injection of Hepa 1-6 tumor cells) mice were used (IFFA CREDO, L'Arbresles, France). Two million tumor cells were injected into the back of the animals subcutaneously. When the size of the tumor reached 200 to 500 mm^3, the animals were given a single injection of 20 mg/kg of oxaliplatin (ELOXATIN®) or of a saline solution.
(§2) The mice were then treated intraperitoneally, two hours after the injection of oxaliplatin or of saline solution, with 10 mg/kg of mangafodipir, of MnTBAP or of CuDIPS, or with 150 mg/kg of NAC, or with a saline solution. The injection of the various antioxidants was continued for one month (three injections per week at the same doses). A group of mice inoculated with tumor cells was not treated.
(§3) The size of the tumors was measured every three days. The tumor volume was calculated as follows: VT (mm^3)=(L×W^2)/2, where L is the longest dimension and W the shortest dimension of the tumor in mm. Fifteen mice were included in each group.

[5] = system: Hepa 1-6, CT26 and A549 tumor cells; assay: In vitro viability test (MTT), result stated for the tumor lines together; details: for effect on the cytotoxic effect of oxaliplatin on tumor cells: with 10 μM oxaliplatin; for effect on the cytotoxic effect of oxaliplatin on tumor cells / effect on the cytotoxic activity of taxol on tumor cells / effect on the cytotoxic activity of 5-FU on tumor cells: increasing concentrations of antioxidant; for effect on the cytotoxic activity of taxol on tumor cells: with 10 μM taxol; for effect on the cytotoxic activity of 5-FU on tumor cells: with 50 μM 5-FU; for effect on tumor cell viability: 0 to 400 μM, 48 h
Description: In vitro viability tests, in response to the treatment with NAC, CuDIPS, MnTBAP or MnDPDP, were carried out on the cell lines of Example 1 and on normal human leukocytes.
as §5
For each of these molecules, cell proliferation assays and cell viability tests were carried out, in the absence of antioxidant molecules, or in the presence of increasing concentrations of NAC, of MnTBAP, of CuDIPS or of MnDPDP.
as §6

[6] = system: CT26 carcinoma tumor cells in BALB/c mice; assay: In vivo antitumor activity, subcutaneous CT26 tumors; design: species or system mouse; details: for decrease in tumor volume at one month compared with the nontreated animals / decrease in tumor volume at one month compared with animals treated only with oxaliplatin: 10 mg/kg i.p.; for decrease in tumor volume at one month compared with the nontreated animals: no oxaliplatin; for decrease in tumor volume at one month compared with animals treated only with oxaliplatin: plus oxaliplatin 20 mg/kg
Description: as §1, §2, §3

[7] = system: Hepa 1-6, CT26 and A549 tumor cells; assay: In vitro cell proliferation assay ([3H]-thymidine), result stated for the tumor lines together; details: for reduction in cell proliferation: 400 μM, 48 h incubation; for effect on the cytostatic (antiproliferative) effect of oxaliplatin: with 10 μM oxaliplatin; for effect on the cytostatic (antiproliferative) effect of oxaliplatin / effect on the cytostatic effect of taxol / effect on the cytostatic effect of 5-FU: increasing concentrations of antioxidant; for effect on the cytostatic effect of taxol: with 10 μM taxol; for effect on the cytostatic effect of 5-FU: with 50 μM 5-FU
Description: as §7, §8
The following antitumor molecules: oxaliplatin (belonging to the cisplatin family); taxol; 5-fluorouracil; which are known to induce ROS production in tumor cells, were used. For each of these molecules, cell proliferation assays and cell viability tests were carried out, in the absence of antioxidant molecules, or in the presence of increasing concentrations of NAC, of MnTBAP, of CuDIPS or of MnDPDP.

plasmid pcDNA3.1 = assay: Plasmid DNA alteration (agarose gel electrophoresis, densitometry); details: for effect on the structure of plasmid DNA (form I / II / III): 37° C., 24 h, SOD mimetics 5 μM, oxaliplatin maximum at DNA/oxaliplatin ratio 0.5
Description: The purified plasmid pcDNA3.1 (INVITROGEN) was used to analyze the potential DNA alterations in response to the addition of molecules used in cancer chemotherapy in the presence, or in the absence, of antioxidant enzyme modulators. This DNA was then stored at −20° C. in 10 mM TRIS, 1 mM EDTA until its use.
The plasmid DNA was incubated with oxaliplatin at a molar ratio of 0.50 in a final volume of 50 μl. MnTBAP (5 μM), CuDIPS (5 μM), mangafodipir (5 μM) or NAC (5 mM) were then added to the solution. The production of superoxide anion was realized by the addition of 200 μM xanthine (SIGMA) and 1 U of xanthine oxidase (SIGMA). The incubation was carried out in the dark at 37° C. for 24 h. At the end of the incubation period, 10 μl aliquots were subjected to 0.8% agarose gel electrophoresis and detected by ethidium bromide staining. The gels were then analyzed by densitometry (VILBER LOURMAT, Marnes-la-Vallée, France).

[8] = 10 mg/kg i.p., three injections per week

Molecule | decrease in tumor volume at one month compared with the nontreated animals [4, 8] [%] | effect on the inhibitory (antitumor) effect of oxaliplatin on tumor growth [4] | effect on the cytotoxic effect of oxaliplatin on tumor cells [5] | effect on the cytotoxic activity of taxol on tumor cells [5] | effect on the cytotoxic activity of 5-FU on tumor cells [5] | decrease in tumor volume at one month compared with the nontreated animals ([6]; three injections per week) [%] | decrease in tumor volume at one month compared with animals treated only with oxaliplatin ([6]; three injections per week) [%] | reduction in cell proliferation [7] [%] | effect on the cytostatic (antiproliferative) effect of oxaliplatin [7] | effect on the cytostatic effect of taxol [7] | effect on the cytostatic effect of 5-FU [7] | effect on the cytotoxic effect of taxol on normal leukocytes (normal human leukocytes) | effect on the cytotoxic effect of oxaliplatin on normal leukocytes (normal human leukocytes) | effect on the cytotoxic effect of 5-FU on normal leukocytes (normal human leukocytes) | other results
O=c1[nH]cc(F)c(=O)[nH]1 [5-FU, 5-fluoro-1,2,3,4-tetrahydropyrimidine-2,5-dione] |  |  |  |  |  |  |  |  |  |  |  |  |  |  | cytotoxicity at 50 µM (CT26 tumor cells; Mus musculus, CT26, 50 μM, no antioxidant, read-out: decrease in cell viability, antitumor agent alone, on average): 85%; decrease in tumor cell proliferation, antitumor agent alone ([1]; 50 μM): 91%; decrease in tumor cell proliferation, antitumor agent alone ([2]; 50 μM): 91%; cytotoxicity at 50 µM (Hepa 1-6 tumor cells; Mus musculus, Hepa1-6, 50 μM, no antioxidant, read-out: decrease in cell viability, antitumor agent alone, on average): 65%; decrease in tumor cell proliferation, antitumor agent alone ([3]; 50 μM): 85%; decrease in viability of normal leukocytes, antitumor agent alone (normal human leukocytes; 40 mM): approximately 19%; cytotoxicity at 50 µM (A549 tumor cells; Homo sapiens, A549, 50 μM, no antioxidant, read-out: decrease in cell viability, antitumor agent alone, on average): 25%
CC(C)c1cc(C(=O)[O-])c(O)c(C(C)C)c1.CC(C)c1cc(C(=O)[O-])c(O)c(C(C)C)c1.[Cu+2] [CuDIPS, Cu[II]-[diisopropylsalicylate]] | 9 | does not significantly increase | increase | increases | increases | 28 | 31 | ~90 | increase | increases | increase | increases | increase | increases | viability reduced by (CT26 tumor cells): 85%; viability reduced by (Hepa 1-6 tumor cells): 74%; decrease in cell viability, maximum (normal human leukocytes): 50%; viability reduced by (A549 tumor cells): 50%
O=C(O)c1ccc(-c2c3nc(c(-c4ccc(C(=O)O)cc4)c4ccc([n-]4)c(-c4ccc(C(=O)O)cc4)c4nc(c(-c5ccc(C(=O)O)cc5)c5ccc2[n-]5)C=C4)C=C3)cc1.[Mn+3] [MnTBAP, Mn(III) tetrakis(5,10,15,20-benzoic acid)-porphyrin] | 42 | does not significantly increase | increase | increases | increases | 59 | 35 | ~90 | increase | increases | increase | virtually no influence | increase | only a very weak influence | viability reduced by (CT26 tumor cells): 75%; viability reduced by (Hepa 1-6 tumor cells): 62%; decrease in cell viability, maximum (normal human leukocytes): 18%; viability reduced by (A549 tumor cells): 37%
CC(=O)N[C@@H](CS)C(=O)O [NAC, N-acetylcystein] |  | completely blocks | decreases | does not influence | does not modify |  |  |  | reduces | reduces | inhibits | decreases | decreases | decreases | increase in proliferation ([1]; 400 μM, 48 h incubation): 47%; increase in tumor volumes after one month compared with mice which are not given NAC ([4]; 150 mg/kg i.p., three injections per week): 50%; effect on tumor cell viability [5]: no effect; increase in proliferation ([2]; 100 μM, 48 h incubation): 73%; increase in tumor volumes after one month compared with mice which do not receive NAC ([6]; 150 mg/kg i.p., three injections per week, mice not treated with oxaliplatin): 44%; effect on the inhibitory effect of oxaliplatin on tumor growth ([6]; mice treated with oxaliplatin 20 mg/kg, NAC 150 mg/kg i.p.): completely blocks; increase in proliferation ([3]; 400 μM, 48 h incubation): 45%; effect on viability of normal human leukocytes (normal human leukocytes): no effect; effect on DNA impairments by mangafodipir, ROS and oxaliplatin (plasmid pcDNA3.1; NAC 5 mM): partially inhibit; effect on DNA impairment by superoxide anions (xanthine/xanthine oxidase) (plasmid pcDNA3.1; NAC 5 mM, X/XO): inhibited; effect on DNA damage by oxaliplatin coincubated with X/XO (plasmid pcDNA3.1; NAC 5 mM, X/XO and low doses of oxaliplatin): decreases the damage
N[C@@H]1CCCC[C@H]1N.O=C([O-])C(=O)[O-].[Pt+2] [oxaliplatin, [(1R,2R)-1,2-cyclohexanediamine-N,N′][oxalate-(2-)—O,O′]platinum (II)] |  |  |  |  |  |  |  |  |  |  |  |  |  |  | decrease in cell viability, antitumor agent alone, on average (CT26 tumor cells; 10 μM, no antioxidant): 27%; decrease in tumor cell proliferation, antitumor agent alone ([1]; 10 μM): 91%; tumor volumes compared with the nontreated animals ([4]; single injection of 20 mg/kg): divides the tumor volumes by four; decrease in tumor cell proliferation, antitumor agent alone ([2]; 10 μM): 70%; tumor volumes compared with the nontreated animals ([6]; single injection of 20 mg/kg): divides the tumor volumes in half; decrease in cell viability, antitumor agent alone, on average (Hepa 1-6 tumor cells; 10 μM, no antioxidant): 50%; decrease in tumor cell proliferation, antitumor agent alone ([3]; 10 μM): 93%; decrease in viability of normal leukocytes, antitumor agent alone (normal human leukocytes; 1 mM): approximately 50%; effect on the structure of plasmid DNA (form I / II / III) (plasmid pcDNA3.1): dose-dependent impairment; decrease in cell viability, antitumor agent alone, on average (A549 tumor cells; 10 μM, no antioxidant): 28%
CC(=O)O[C@H]1C(=O)[C@@]2(C)[C@H]([C@H](OC(=O)c3ccccc3)[C@]3(O)C[C@H](OC(=O)[C@H](O)[C@@H](NC(=O)c4ccccc4)c4ccccc4)C(C)=C1C3(C)C)[C@]1(OC(C)=O)CO[C@@H]1C[C@@H]2O [taxol] |  |  |  |  |  |  |  |  |  |  |  |  |  |  | cytotoxicity at 10 µM (CT26 tumor cells; Mus musculus, CT26, 10 μM, no antioxidant, read-out: decrease in cell viability, antitumor agent alone, on average): 50%; decrease in tumor cell proliferation, antitumor agent alone ([1]; 10 μM): 71%; decrease in tumor cell proliferation, antitumor agent alone ([2]; 10 μM): 65%; cytotoxicity at 10 µM (Hepa 1-6 tumor cells; Mus musculus, Hepa1-6, 10 μM, no antioxidant, read-out: decrease in cell viability, antitumor agent alone, on average): 25%; decrease in tumor cell proliferation, antitumor agent alone ([3]; 10 μM): 85%; decrease in viability of normal leukocytes, antitumor agent alone (normal human leukocytes; 20 μM): approximately 50%; cytotoxicity at 10 µM (A549 tumor cells; Homo sapiens, A549, 10 μM, no antioxidant, read-out: decrease in cell viability, antitumor agent alone, on average): 47%
manganese dipyridoxyl phosphate [MnDPDP] | 34 |  | increase | increases | increases | 54 | 63 | ~90 | increase | increases | increase | inhibits | inhibits | inhibits | decrease in tumor volume at one month compared with animals treated only with oxaliplatin ([4]; 10 mg/kg i.p., three injections per week, plus oxaliplatin 20 mg/kg): 63%; effect on tumor cell viability [5]: reduces, in a dose-dependent manner; effect on viability of normal human leukocytes (normal human leukocytes): does not influence; effect on the structure of plasmid DNA (form I / II / III) (plasmid pcDNA3.1): induces, per se, DNA damage
